In US9938562B2, “Naphthalene derived chromogenic enzyme substrates” (Glycosynth Limited, priority 2013, dated 2018):
Read-outs that look alike come from different tables or passages of the source.

Legend:
[1] = system: β-D-glucuronidase-positive strains; experiment: Hydrolysis by glucuronidase-positive strains; type: cell-based
[2] = system: E. faecium NCTC 7171; experiment: Glucuronide screen, agar plates (CPS ID 3 or Columbia agar); type: cell-based; settings: E. faecium NCTC 7171, agar
[3] = system: clinical isolates of E. coli; experiment: Glucuronide sensitivity screen, agar plates (CPS ID 3 or Columbia agar); type: cell-based
[4] = system: E. cloacae; experiment: Glucuronide screen, agar plates (CPS ID 3 or Columbia agar); type: cell-based
[5] = system: E. faecalis NCTC 775; experiment: as above; type: cell-based; settings: E. faecalis NCTC 775, agar
[6] = system: Providencia rettgeri NCTC 7475; experiment: Agar plate multi-point inoculation, colour; type: cell-based
[7] = system: Yersinia enterocolitica NCTC 11176; experiment: Agar plate multi-point inoculation, colour; type: cell-based; settings: Columbia agar, FAC 500 mg/L, substrate 300 mg/L, 37° C. 18 h in air
[8] = system: Serratia marcescens NCTC 10211; experiment: Agar plate multi-point inoculation, colour; type: cell-based
[9] = system: Pseudomonas aeruginosa NCTC 10662; experiment: Agar plate multi-point inoculation, colour; type: cell-based
[10] = system: Escherichia coli NCTC 10418; experiment: Agar plate multi-point inoculation, colour; type: cell-based
[11] = system: Enterococcus faecium NCTC 7171; experiment: Agar plate multi-point inoculation, colour; type: cell-based
[12] = system: Enterococcus faecalis NCTC 775; experiment: Agar plate multi-point inoculation, colour; type: cell-based
[13] = system: Bacillus subtilis NCTC 9372; experiment: Agar plate multi-point inoculation, colour; type: cell-based
[14] = system: Staphylococcus aureus (MRSA) NCTC 11939; experiment: Agar plate multi-point inoculation, colour; type: cell-based; settings: Columbia agar, FAC 500 mg/L, substrate 300 mg/L, 37° C. 18 h in air
[15] = system: Salmonella typhimurium NCTC 74; experiment: Agar plate multi-point inoculation, colour; type: cell-based
[16] = system: Klebsiella pneumoniae NCTC 9528; experiment: Agar plate multi-point inoculation, colour; type: cell-based
[17] = system: Candida glabrata NCPF 3943; experiment: Agar plate multi-point inoculation, colour; type: cell-based
[18] = system: Candida albicans ATCC 90028; type: cell-based
[19] = system: Staphylococcus epidermidis NCTC 11047; experiment: Agar plate multi-point inoculation, colour; type: cell-based
[20] = system: Listeria monocytogenes NCTC 11994; experiment: Agar plate multi-point inoculation, colour; type: cell-based
[21] = system: range of microorganisms; experiment: Agar plate evaluation with a range of microorganisms (hue, diffusion, background); type: cell-based; settings: agar plates with FAC
[22] = system: Burkholderia cepacia NCTC 10931; experiment: Agar plate multi-point inoculation, colour; type: cell-based; settings: Columbia agar, FAC 500 mg/L, substrate 300 mg/L, 37° C. 18 h in air
[23] = system: Steptococcus pyogenes NCTC 8306; experiment: Agar plate multi-point inoculation, colour; type: cell-based
[24] = system: Enterobacter cloacae NCTC 11936; experiment: Agar plate multi-point inoculation, colour; type: cell-based
[25] = system: Acinetobacter baumannii NCTC 19606; experiment: Agar plate multi-point inoculation, colour; type: cell-based
[26] = system: Staphylococcus aureus NCTC 6571; experiment: Agar plate multi-point inoculation, colour; type: cell-based
[27] = 100 E. coli strains, agar, 18 h incubation

COC(=O)C1OC(Oc2cc3ccccc3cc2O)C(O)C(O)C1O [Compound 13, DHN-β-D-glucuronide-6′-methyl ester]
weaker: colour after hydrolysis compared with 12a or 12b [1]

NC1CCCCC1.O=C(O)[C@H]1O[C@@H](Oc2c[nH]c3ccc(Br)c(Cl)c23)[C@H](O)[C@@H](O)[C@@H]1O [X-β-D-glucuronide CHA salt]
−: Colour [2] | Colour [3] | Colour ([3]; E. coli 260313A, agar) | Colour ([3]; E. coli 260316T, agar) | Colour ([3]; E. coli 260333P, agar) | Colour ([3]; E. coli 260364H, agar) | Colour ([3]; E. coli 260390B, agar) | Colour ([3]; E. coli 260400N, agar) | Colour ([3]; E. coli 260406A, agar) | Colour ([3]; E. coli 260416W, agar) | Colour ([3]; E. coli 260437A, agar) | Colour ([3]; E. coli 260471B, agar) | Colour ([3]; E. coli 260478N, agar) | Colour ([3]; E. coli 260483R, agar) | Colour ([3]; E. coli 260495R, agar) | Colour ([3]; E. coli 260505Q, agar) | Colour ([3]; E. coli 260514G, agar) | Colour ([3]; E. coli 260515Z, agar) | Colour ([3]; E. coli 260537E, agar) | Colour ([3]; E. coli 260538H, agar) | Colour ([3]; E. coli 260553X, agar) | Colour ([3]; E. coli 260578D, agar) | Colour ([3]; E. coli 2603121P, agar) | Colour ([4]; E. cloacae 260329R, agar) | Colour ([4]; E. cloacae NCTC 11936, agar) | Colour [5]
21: Negative strains [3, 27]
79%: % Sensitivity [3]
Green: Colour ([3]; E. coli 260262P, agar) | Colour ([3]; E. coli 260280Z, agar) | Colour ([3]; E. coli 260310H, agar) | Colour ([3]; E. coli 260327V, agar) | Colour ([3]; E. coli 260330Y, agar) | Colour ([3]; E. coli 260345F, agar) | Colour ([3]; E. coli 260348K, agar) | Colour ([3]; E. coli 260354W, agar) | Colour ([3]; E. coli 260370C, agar) | Colour ([3]; E. coli 260375E, agar) | Colour ([3]; E. coli 260396Z, agar) | Colour ([3]; E. coli 260398Q, agar) | Colour ([3]; E. coli 260399E, agar) | Colour ([3]; E. coli 260401Q, agar) | Colour ([3]; E. coli 260402H, agar) | Colour ([3]; E. coli 260404W, agar) | Colour ([3]; E. coli 260405P, agar) | Colour ([3]; E. coli 260406Y, agar) | Colour ([3]; E. coli 260407F, agar) | Colour ([3]; E. coli 260408C, agar) | Colour ([3]; E. coli 260411Z, agar) | Colour ([3]; E. coli 260412Q, agar) | Colour ([3]; E. coli 260414H, agar) | Colour ([3]; E. coli 260415Y, agar) | Colour ([3]; E. coli 260417P, agar) | Colour ([3]; E. coli 260422Y, agar) | Colour ([3]; E. coli 260424P, agar) | Colour ([3]; E. coli 260425A, agar) | Colour ([3]; E. coli 260426F, agar) | Colour ([3]; E. coli 260428T, agar) | Colour ([3]; E. coli 260431N, agar) | Colour ([3]; E. coli 260432E, agar) | Colour ([3]; E. coli 260433H, agar) | Colour ([3]; E. coli 260434Y, agar) | Colour ([3]; E. coli 260435W, agar) | Colour ([3]; E. coli 260436P, agar) | Colour ([3]; E. coli 260438F, agar) | Colour ([3]; E. coli 260439C, agar) | Colour ([3]; E. coli 260440S, agar) | Colour ([3]; E. coli 260441G, agar) | Colour ([3]; E. coli 260458Y, agar) | Colour ([3]; E. coli 260459W, agar) | Colour ([3]; E. coli 260463D, agar) | Colour ([3]; E. coli 260464G, agar) | Colour ([3]; E. coli 260479Q, agar) | Colour ([3]; E. coli 260480M, agar) | Colour ([3]; E. coli 260481J, agar) | Colour ([3]; E. coli 260485D, agar) | Colour ([3]; E. coli 260486L, agar) | Colour ([3]; E. coli 260492J, agar) | Colour ([3]; E. coli 260494B, agar) | Colour ([3]; E. coli 260497D, agar) | Colour ([3]; E. coli 260502G, agar) | Colour ([3]; E. coli 260503Z, agar) | Colour ([3]; E. coli 260504N, agar) | Colour ([3]; E. coli 260506E, agar) | Colour ([3]; E. coli 260508Y, agar) | Colour ([3]; E. coli 260509W, agar) | Colour ([3]; E. coli 260510R, agar) | Colour ([3]; E. coli 260511X, agar) | Colour ([3]; E. coli 260521S, agar) | Colour ([3]; E. coli 260522Z, agar) | Colour ([3]; E. coli 260532S, agar) | Colour ([3]; E. coli 260533G, agar) | Colour ([3]; E. coli 260536Q, agar) | Colour ([3]; E. coli 260539Y, agar) | Colour ([3]; E. coli 260541R, agar) | Colour ([3]; E. coli 260545G, agar) | Colour ([3]; E. coli 260547N, agar) | Colour ([3]; E. coli 260548Q, agar) | Colour ([3]; E. coli 260549E, agar) | Colour ([3]; E. coli 260554D, agar) | Colour ([3]; E. coli 260555L, agar) | Colour ([3]; E. coli 260563B, agar) | Colour ([3]; E. coli 260564R, agar)
79: Positive strains [3, 27]

DHN-6-sulfonic acid-β-D-galactopyranoside sodium salt [Compound 31]
+: Colour [6] | Colour [10] | Colour [24]
30 mg: amount dissolved in water
purple to maroon colonies: colour (hue) after hydrolysis [21]
−: Colour [7] | Colour [8] | Colour [9] | Colour [11] | Colour [12] | Colour [13] | Colour [14] | Colour [15] | Colour [16] | Colour [17] | Colour [18] | Colour [19] | Colour [20] | Colour [22] | Colour [23] | Colour [25] | Colour [26]
